The text below walks through data of patent US7273880B2, “Selective NPY (Y5) antagonists” (H. Lunbeck A/S, priority 1999, dated 2007).

Where a name gives a salt, the structure may show the parent alone.

The first series has as its target T1, human Y5 receptor (hNPY-5) (Homo sapiens, UniProt Q15761).
T1 construct: expressed in transfected cells; host or cells: mouse fibroblast LM(tk-) cells, e.g. L-hY5-7 (ATCC CRL-11995)
T1 sequence (Q15761 1-445): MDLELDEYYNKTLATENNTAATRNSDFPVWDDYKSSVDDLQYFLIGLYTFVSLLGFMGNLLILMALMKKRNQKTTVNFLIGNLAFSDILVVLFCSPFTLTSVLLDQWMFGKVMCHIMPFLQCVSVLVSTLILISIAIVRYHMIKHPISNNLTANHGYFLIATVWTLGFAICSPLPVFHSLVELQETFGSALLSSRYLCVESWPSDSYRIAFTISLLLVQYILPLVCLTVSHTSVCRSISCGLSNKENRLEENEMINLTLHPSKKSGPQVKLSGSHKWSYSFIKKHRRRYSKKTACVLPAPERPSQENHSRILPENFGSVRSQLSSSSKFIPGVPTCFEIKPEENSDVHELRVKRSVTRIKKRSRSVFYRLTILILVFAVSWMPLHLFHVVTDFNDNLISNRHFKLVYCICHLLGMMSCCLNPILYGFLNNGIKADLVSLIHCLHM
The series is described as follows: Radioligand binding to membranes, cloned human Y5 receptor. To be noted: cloned human NPY Y5 receptor, radioligand competition binding; Tables 1-3; read-out: Ki, nM hNPY-5. The method, then:
Binding of the compounds of the present invention to human Y1, Y2, Y4, and Y5 receptors was evaluated using stably transfected 293 or LM(tk-) cells as described above. Stably transfected cell lines which may be used for binding assays include, for example, for the human Y1 receptor, 293-hY1-5 (deposited Jun. 4, 1996, under ATCC Accession No. CRL-12121), for the human Y2 receptor, 293-hY2-10 (deposited Jan. 27, 1994, under ATCC Accession No. CRL-11537), for the human Y4 receptor, L-hY4-3 (deposited Jan. 11, 1995, under ATCC Accession No. CRL-11779), and for human Y5 receptor, L-hY5-7 (deposited Nov. 15, 1995, under ATCC Accession No. CRL-11995). These cell lines were deposited with the American Type Culture Collection (ATCC), 10801 University Blvd., Manassas, Va. 20110-2209, U.S.A. under the provisions of the Budapest Treaty for the International Recognition of the Deposit of Microorganisms for the Purposes of Patent Procedure.
Membranes were harvested from COS-7 cells 48 hours after transient transfection. Adherent cells were washed twice in ice-cold phosphate buffered saline (138 mM NaCl, 8.1 mM Na2HPO4, 2.5 mM KCl, 1.2 mM KH2PO4, 0.9 mM CaCl2, 0.5 mM MgCl2, pH 7.4) and lysed by sonication in ice-cold sonication buffer (20 mM Tris-HCl, 5 mM EDTA, pH 7.7). Large particles and debris were cleared by low speed centrifugation (200×g, 5 min, 4° C.). Membranes were collected from the supernatant fraction by centrifugation (32,000×g, 18 min, 4° C.), washed with ice-cold hypotonic buffer, and collected again by centrifugation (32,000×g, 18 min, 4° C.). The final membrane pellet was resuspended by sonication into a small volume of ice-cold binding buffer (˜1 ml for every 5 plates: 10 mM NaCl, 20 mM HEPES, 0.22 mM KH2PO4, 1.26 mM CaCl2, 0.81 mM MgSO4, pH 7.4). Protein concentration was measured by the Bradford method (Bradford, 1976) using Bio-Rad Reagent, with bovine serum albumin as a standard. Membranes were held on ice for up to one hour and used fresh, or flash-frozen and stored in liquid nitrogen.
Membranes were prepared similarly from 293, LM(tk-), and NIH-3T3 cells. To prepare membranes from baculovirus infected cells, 2×10^7 Sf21 cells were grown in 150 mm tissue culture dishes and infected with a high-titer stock of hY5BB3. Cells were incubated for 2-4 days at 27° C., no CO2 before harvesting and membrane preparation as described above.
Membrane suspensions were diluted in binding buffer supplemented with 0.1% bovine serum albumin to yield an optimal membrane protein concentration so that ^125I-PYY (or alternative radioligand such as ^125I-NPY, ^125I-PYY3-36, or ^125I-[Leu^31Pro^34]PYY) bound by membranes in the assay was less than 10% of ^125I-PYY (or alternative radioligand) delivered to the sample (100,000 dpm/sample=0.08 nM for competition binding assays). ^125I-PYY (or alternative radioligand) and peptide competitors were also diluted to desired concentrations in supplemented binding buffer. Individual samples were then prepared in 96-well polypropylene microtiter plates by mixing 125I-PYY (25 μL) (or alternative radioligand), competing peptides or supplemented binding buffer (25 μL), and finally, membrane suspensions (200 μL). Samples were incubated in a 30° C. water bath with constant shaking for 120 min. Incubations were terminated by filtration over Whatman GF/C filters (pre-coated with 1% polyethyleneimine and air-dried before use), followed by washing with 5 mL of ice-cold binding buffer. Filter-trapped membranes were impregnated with MeltiLex solid scintillant (Wallac, Turku, Finland) and counted for ^125I in a Wallac Beta-Plate Reader. Alternatively, incubations were carried out in GF/C filter plates (pre-coated with 1% polyethyleneimine and air-dried before use), followed by vacuum filtration and three washes of 300 μL of ice-cold binding buffer. 50 μL of UltimaGold (Packard) scintillant were added and counted for ^125I in a Wallac MicroBeta Trilux. […]
(In a radioligand displacement assay an active substance lowers the binding of a labelled ligand.)
In the case of `COc1ccccc1-c1csc(N[C@H]2CC[C@H](CN(C=O)C(C)C)CC2)n1` [Example 96, trans-2-(4-(N-Isopropyl)formamidomethyl)cyclohexyl-amino-4-(2-methoxy)phenylthiazole hydrogen chloride], the Ki was found to be 56 nM.
In the case of `CS(=O)(=O)NCC1CCC(Nc2nc3c(s2)COc2ccccc2-3)CC1` (stereo not drawn) [Example 70, 2-(4-Methylsulfonylaminomethyl)cyclohexylamino-4H-chromeno[4,3-d]thiazole], the Ki was found to be 21 nM.
Still for that read-out and setting: under `COc1cccc(-c2csc(N[C@H]3CC[C@H](CNS(C)(=O)=O)CC3)n2)c1` [Example 93, trans-4-(3-Methoxy)phenyl-2-(4-methylsulfonylamino-methyl)-cyclohexylaminothiazole] stands 150 nM.
For `CCS(=O)(=O)N[C@H]1CC[C@H](CNc2nc3c(s2)CCCc2ccc(F)cc2-3)CC1` [Example 52, trans-N2-(4-Ethylsulfonylamino)cyclohexylmethyl-9-fluoro-5,6-dihydro-4H-benzo[6,7]cyclohepta[d][1,3]-thiazol-2-amine], the Ki stood at 1.7 nM.
On the same count and under the same terms, the figure for `CCOC(=O)NC[C@H]1CC[C@H](Nc2nc(-c3ccccc3OC)cs2)CC1` [Example 92, trans-2-(4-Ethoxycarbonylaminomethyl)cyclohexylamino-4-(2-methoxy)phenylthiazole hydrogen chloride] is 912 nM; for `CCOC(=O)NC[C@H]1CC[C@H](Nc2nc(-c3cccc(OC)c3)cs2)CC1` [Example 94, trans-2-(4-Ethoxycarbonylaminomethyl)cyclohexylamino-4-(3-methoxy)phenylthiazole hydrogen chloride] it is 240 nM; for `COc1ccccc1-c1csc(N[C@H]2CC[C@H](CNS(C)(=O)=O)CC2)n1` [Example 91, trans-4-(2-Methoxy)phenyl-2-(4-methylsulfonylamino-methyl)-cyclohexylamino-1,3-thiazole hydrochloride] it is 12.3 nM.
The same measure, in the same setting: under `O=S(=O)(NCCCCCNc1nc2c(s1)CCCc1ccc(F)cc1-2)c1cccnc1` [Example 55, 1-Aza-9-fluoro-4,5-dihydro-2-(5-(3-pyridyl)sulfonyl-amino)pentylamino-3-thia-benzo[e]azulene] stands 3.4 nM.
The same measure, in the same setting: the figure for `COc1ccc2c(c1)CCCc1sc(NC[C@H]3CC[C@H](NS(C)(=O)=O)CC3)nc1-2` [Example 71, trans-1-Aza-4,5-dihydro-8-methoxy-2-(4-methylsulfonyl-amino)cyclohexylmethylamino-3-thia-benzo[e]azulene] is 2.5 nM.
`COCCN(C=O)[C@H]1CC[C@H](CNc2nc(-c3ccccc3)cs2)CC1` [Example 98, trans-N-(2-Methoxyethyl)-N-(4-[(4-phenyl-1,3-thiazol-2-yl)amino]methylcyclohexyl)formamide]: the Ki was determined as 125 nM.
For the compound `O=S(=O)(NCCCCNc1nc2c(s1)CCCc1ccc(F)cc1-2)c1cccnc1` [Example 56, 1-Aza-9-fluoro-4,5-dihydro-2-(4-(3-pyridyl)sulfonyl-amino)butylamino-3-thia-benzo[e]azulene], the inhibition constant Ki came out at 26 nM.

System in the next series: not given
Assay: not given
Conditions: not given
As for `CS(=O)(=O)NCC1CCC(Nc2nc3c(s2)COc2ccccc2-3)CC1` (stereo not drawn) (as salt: salt) [Example 70, 2-(4-Methylsulfonylaminomethyl)cyclohexylamino-4H-chromeno[4,3-d]thiazole], the melting point was 140 to 144 °C.
On the same count and under the same terms, the figure for `CCN(C=O)[C@H]1CC[C@H](CNc2nc3c(s2)CCOc2ccccc2-3)CC1` (as salt: HCl) [Example 87, trans-1-Aza-2-(4-(n-(ethyl) formamido)cyclohexyl)methyl-amino-4,5-dihydro-6-oxa-3-thia-benzo[e]azulene] is 210 to 213 °C.
On the same count and under the same terms, the figure for `COCC(=O)NC[C@H]1CC[C@H](Nc2nc3c(s2)CCCc2ccc(F)cc2-3)CC1` (as salt: HCl) [Example 80, N1-({4-[(9-fluoro-5,6-dihydro-4H-benzo[6,7]-cyclohepta-[d][1,3]thiazol-2-yl)amino]cyclohexyl}-methyl)-2-methoxyacetamide] is 63 to 65 °C; for `CCCN(C=O)[C@H]1CC[C@H](CNc2nc3c(s2)CCOc2ccccc2-3)CC1` (as salt: HCl) [Example 88, N-{4-[(4,5-Dihydrobenzo[2,3]oxepino[4,5-d][1,3]-thiazol-2-ylamino)methyl]cyclohexyl}-N-propyl-formamide] it is 195 to 197 °C.
The compound `COc1cccc2c1OCCc1sc(NC[C@H]3CC[C@H](NS(C)(=O)=O)CC3)nc1-2` (as salt: hydrochloride) [Example 65, trans-N2-(4-Methylsulfonylamino)cyclohexylmethyl-7-methoxy-4,5-dihydro-benzo[2,3]oxepino[4,5-d][1,3]-thiazol-2-amine hydrochloride] gave a melting point of 225 to 230 °C.
Still for that read-out and setting: the figure for `COc1ccc2c(c1)-c1nc(NC[C@H]3CC[C@H](NS(C)(=O)=O)CC3)sc1CCO2` (as salt: HCl) [Example 63, trans-1-Aza-4,5-dihydro-9-methoxy-2-{4-methylsulfonyl-amino}cyclohexylmethylamino-6-oxa-3-thia-benzo[e]azulene] is 200 to 215 °C; for `COc1ccc(C)cc1S(=O)(=O)NCCOCCNc1nc2c(s1)CCCc1ccc(F)cc1-2` (as salt: HCl) [Example 58, 1-Aza-9-fluoro-4,5-dihydro-2-{2-[2-(2-methoxy-5-methylphenyl)sulfonylamino]ethoxy}ethylamino-3-thia-benzo[e]azulene] it is 56 to 60 °C; for `CC(C)N(C=O)C[C@H]1CC[C@H](Nc2nc3c(s2)CCCc2ccc(F)cc2-3)CC1` (as salt: salt) [Example 83, trans-1-Aza-9-fluoro-4,5-dihydro-2-(4-(N-isopropyl-formamido)methyl)cyclohexylamino-3-thia-benzo[e]-azulene] it is 106 to 107 °C.
Still for that read-out and setting: under `COc1ccc2c(c1)CCCc1sc(N[C@H]3CC[C@H](CNS(=O)(=O)C(C)C)CC3)nc1-2` (as salt: salt) [Example 73, trans-1-Aza-4,5-dihydro-2-(4-isopropylsulfonyl-aminomethyl)-cyclohexylamino-8-methoxy-3-thia-benzo[e]-azulene] stands 87 to 89 °C; under `COc1ccc2c(c1)CCCc1sc(NC[C@H]3CC[C@H](NS(C)(=O)=O)CC3)nc1-2` (as salt: salt) [Example 71, trans-1-Aza-4,5-dihydro-8-methoxy-2-(4-methylsulfonyl-amino)cyclohexylmethylamino-3-thia-benzo[e]azulene], 94 to 97 °C.

As a reminder, the Ki is the dissociation constant of the complex between target and ligand, obtained from inhibition or displacement. In general, melting point refers to the temperature, or range, at which the solid turns liquid.
